TGI and GI50 data for nine molecules are collected here from PubChem BioAssay (NCI).

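Tested at 5 concentrations; 48 h exposure; 96-well plates; endpoints linearly interpolated, else capped at highest concentration. The concentration for 50% growth inhibition is given as GI50. Definition used: TGI = concentration required for complete inhibition of growth.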

Common to all, as to test: NCI anticancer screen, dose series, 48 h
The subject of assay [1] is EKVX NSCLC.
The test system of assay [2] is K-562 leukemia.
Assay [3] has as its system MCF7 breast.
In assay [4] the test system is NCI-H460 lung.
The subject of assay [5] is NCI/ADR-RES ovarian.
Assay [6] relates to RXF 393 renal.
The test system of assay [7] is SK-MEL-5 melanoma.
Assay [8] has as its system SNB-75 CNS.
The test system of assay [9] is SR leukemia.
Assay [10] concerns T-47D breast.

As for `CN1CCC(n2[nH]c(-c3ccccc3)c(Cc3ccccc3)c2=O)CC1`, the TGI in assay [1], in assay [2], in assay [3], in assay [4], in [5] and in [6] was more than 100 µM throughout. The TGI in [7], in [8], in assay [9] and in [10] was more than 100 µM throughout.
For `COc1ccc2c(c1)[C@@]1(C)CCC3c4ccc(O)cc4CCC3C1C2` (stereo not given in full), the GI50 in assay [1] is 17.6 µM; in assay [2], 14.8 µM; in assay [3] it was 15.1 µM; in assay [4], 9.02 µM; in assay [5], 14.4 µM; in [6] it was 10.5 µM. Also, the GI50 was 17 µM in assay [7], 16.6 µM in [8], 16.3 µM in assay [9] and 11.7 µM in [10]. The TGI was 33.2 µM in assay [1]; 48.4 µM in [2]; 30.8 µM in [3]; 23.2 µM in [4]; 29.3 µM in assay [5]; 34.5 µM in [6]. In addition, the TGI in assay [7] was 33.1 µM; in [8], 30.9 µM; in assay [9] it was more than 100 µM; in [10], 26.8 µM.
For `CCN1CCC(CC(=O)Nc2n[nH]c3nc(-c4cccs4)c(Br)cc23)CC1`, the GI50 in [1] was more than 25 µM; in assay [2], 7.61 µM; in [3], 6.29 µM; in assay [4], 10.1 µM; in assay [5], more than 20.7 µM; in assay [6], 5.51 µM. In addition, the GI50 in [7] is 6.37 µM; in [8] it was 2.34 µM; in assay [9] it was 11.2 µM; in assay [10], 12.4 µM. The TGI in assay [1] is more than 25 µM; in [2], more than 19.2 µM; in [3], 18.5 µM; in [4], more than 25 µM; in assay [5], more than 25 µM; in assay [6] it was 16.8 µM. The TGI in assay [7] was more than 14.6 µM; in assay [8] it was more than 20.4 µM; in [9] it was more than 25 µM; in [10] it was more than 25 µM.
For the molecule `Cc1ccc2nc(N/N=C/c3cccc(C)n3)cc(C)c2c1`, the TGI in assay [1] is 35.7 µM; in assay [2] it was more than 100 µM; in assay [3], 32.5 µM; in assay [4], 23.2 µM; in assay [5], 48 µM; in assay [6], 31.6 µM. Besides, the TGI in [7] worked out at 36.4 µM; in assay [8], 36.6 µM; in [9] it was 45.3 µM; in [10] it was 38.7 µM.
Regarding `CC[C@@]1(O)C(=O)OCc2c1cc1n(c2=O)Cc2cc3c(NC(=O)CN)cccc3nc2-1`, the TGI in [1] was more than 100 µM; in [2], more than 100 µM; in [3] it was more than 100 µM; in assay [4], 2.94 µM; in [5], more than 100 µM; in assay [6] it was 0.354 µM. The TGI in assay [7] was 2.32 µM; in [8], 0.693 µM; in assay [9], less than 0.0121 µM; in [10] it was 0.744 µM.
`COc1ccc(-c2ccccc2)cc1-c1c(Nc2cc(Cl)cc(Cl)c2O)c(=O)c1=O`: the GI50 in assay [1] was 1.51 µM; in assay [2], 1.59 µM; in [3] it was 1.3 µM; in [4], 1.55 µM; in assay [5] it was 1.38 µM; in [6] it was 1.48 µM. In addition, the GI50 in [7] is 0.97 µM; in assay [8], 1.03 µM; in assay [9] it was 1.61 µM; in assay [10], 1.7 µM. The TGI in assay [1], in assay [2], in assay [3], in assay [4], in [5] and in [6] was more than 50 µM throughout. In addition, the TGI in assay [7] was 2.25 µM; in [8], 3.61 µM; in assay [9] it was 21.8 µM; in assay [10], more than 50 µM.
Turning to `CCC(=O)c1ccc2c(c1)N(CCCN1CCN(CCO)CC1)c1ccccc1S2`, the GI50 was 13.1 µM in assay [1]; 3.24 µM in [2]; 12.4 µM in assay [3]; 17.6 µM in assay [4]; 14.7 µM in assay [5]; 12.2 µM in [6]. Also, the GI50 in [7] is 8.65 µM; in assay [8] it was 13.5 µM; in [9], 11.7 µM; in assay [10] it was 14 µM. The TGI came to 28.1 µM in assay [1]; 9.83 µM in assay [2]; 26.9 µM in assay [3]; 33.5 µM in [4]; 29.4 µM in assay [5]; 26.2 µM in [6]. For the same molecule, the TGI is 21.1 µM in assay [7], 27 µM in assay [8], 28.7 µM in assay [9] and 31.5 µM in assay [10].
Take `NC(=O)NCCSC1CCCCC1O` (stereo not given): the TGI in assay [1], in assay [2], in assay [3], in assay [4], in assay [5] and in assay [6] was more than 100 µM each time. Also, the TGI in assay [7], in assay [8], in [9] and in assay [10] was more than 100 µM each time.
On to `O=[N+]([O-])/C=C/c1ccc([N+](=O)[O-])cc1`, for which the GI50 in assay [1] was 14.1 µM; in assay [2], 2.4 µM; in [3], 1.84 µM; in assay [4] it was 4.57 µM; in assay [5], 8.71 µM; in assay [6], 1.52 µM. Besides, the GI50 in assay [7] was 1.76 µM; in assay [8] it was 1.87 µM; in [9] it was 2.29 µM; in assay [10] it was 2.78 µM. Also, the TGI was determined as 31.8 µM in [1]; 12.4 µM in [2]; 5.29 µM in [3]; 22.6 µM in assay [4]; 73.8 µM in [5]; 2.98 µM in assay [6]. The TGI in assay [7] was 4.51 µM; in assay [8] it was 4.02 µM; in assay [9], 8.33 µM; in [10], 9.03 µM.
